From paper PMC12030059, “Mechanistic Advances in the Therapeutic Application of Bixin for Lung Inflammation In Vitro and In Vivo” (Pharmaceuticals, 2025)
In brackets after ≈: the same amount, converted by molar mass.

Key:
RAW 264.7 cells = assay: ROS scavenger activity assay (NBT), LPS-induced; type: cell-based; details: for ROS production induced by LPS: LPS 10 μg/mL, 12.5–200 μM, effect starting from 100 µM
Procedure: ROS levels were determined using the NBT method. RAW 264.7 cells were incubated for 1 h with 10 μg/mL LPS and different concentrations of bixin or potassium bixinate (0–200 μM) to evaluate their ability to intercept superoxide anions induced by LPS. After incubation, a 10% (w/v) NBT solution was added to each well and incubated for 1 h at 37 °C. Cellular membranes were permeabilized with 2 M KOH, and the resulting formazan was solubilized in DMSO. Optical density (OD) was measured at 630 nm using a Varioskan LUX spectrophotometer (ThermoFisher Scientific, Waltham, MA, USA).

Kinetic solubility assay = type: physicochemical; details: aqueous buffer, kinetic from dmso stock, 37 °C
Procedure: These solutions were incubated in a shaking water bath at 37 °C for 4 and 24 h. Immediately after each incubation period, the samples were centrifuged at 21,000× g Universal Centrifuge 320R Hettich (Tuttlingen, Germany) at 22 °C. The supernatant was collected, filtered through a 0.44 μm Millipore filter (Sigma-Aldrich—Saint Louis, MO, USA) into a vial, and analyzed using a HPLC LC-20AD Shimadzu (Kyoto, Japan) coupled with a DAD detector set at 457 nm. The mobile phase consisted of acetonitrile and methanol (85:15 v/v) using a 100-5C18 Kromasil (Bohus, Sweden) analytical column (4.6 mm × 250 mm, 5 μm) as the stationary phase in isocratic mode at 22 °C with a flow rate of 1 mL/min. A calibration curve was prepared using bixin in acetonitrile at concentrations ranging from 0 to 200 μM and analyzed under the same HPLC conditions. LogS was calculated as the base-10 logarithm of the solubility (in μM) for each time point.

Rat plasma stability = type: in vitro ADME; details: over 4 h, 50 μM, 37 °C
Procedure: Two- to three-month-old healthy male Wistar rats (with an average weight of 385 g) were obtained from the Graduation Program in Pharmacology and Medicinal Chemistry Bioterium (CCS/UFRJ) (Rio de Janeiro, Brazil). The rats were fed ad libitum with Purina chow (Nuvilab, Curitiba, Brazil) and had unrestricted access to water. They were housed in a controlled environment maintained at 22 ± 2 °C, 50–70% relative humidity and a 12 h light/dark cycle. The local Animal Ethics Committee approved all experimental procedures (046/21).
A 10 mM stock solution of bixin was prepared in DMSO. Rat blood was collected with heparin and centrifuged. The plasma fraction was separated and diluted to 80% in PBS at pH 7.4. Then, 50 μL of the 80% rat plasma solution was added to a final volume of 250 μL of a KPE at pH 7.4 containing 50 μM of bixin. The bixin was incubated with rat plasma under these conditions for 0, 30, 60, 120, and 240 min with shaking in a water bath at 37 °C. […] The supernatant was collected, filtered through a 0.22 μm filter into a vial, and then analyzed by HPLC using an LC-20AD Shimadzu (Kyoto, Japan) system equipped with a 100-5C18 Kromasil (Bohus, Sweden) analytical column (4.6 mm × 250 mm, 5 μm) and an SPD M20A diode array detector Shimadzu (Kyoto, Japan) set to wavelengths of 271 nm and 457 nm. […]

[1] = tested on: C57BL/6 mice challenged with intranasal LPS; assay: Intranasal LPS lung inflammation in mice, BAL cytokine ELISA; type: in vivo; details: 200 mg/kg gavage, 5 days
Procedure: Eight-week-old male C57BL/6 mice were obtained from the Multidisciplinary Center for Biological Research in Laboratory Animal Science (CEMIB/UNICAMP, Campinas, Brazil). The mice were provided with Purina chow ad libitum (Nuvilab, Curitiba, Brazil) and had unrestricted access to water in a controlled environment maintained at 22 ± 2 °C, 50–70% relative humidity, and a 12 h light/dark cycle (EB-273B, Insight Equipamentos Ltd., São Paulo, Brazil). They were acclimatized for two weeks before the experimental procedures. All experimental protocols were approved by the local Animal Ethics Committee (096/19).
To evaluate the pharmacological effects of potassium bixinate, the animals were divided into four groups (n = 5–7): (1) Control, (2) KBx, (3) LPS, and (4) LPS + KBx. For five consecutive days, animals in groups 2 and 4 were treated by oral gavage with 200 mg/kg of potassium bixinate diluted in PBS in a final volume of 100 μL, while animals in groups 1 and 3 were treated with 100 μL of PBS. On the sixth day, animals in groups 3 and 4 were challenged intranasally with 60 μg of LPS (extracted from Escherichia coli O55:B5) diluted in PBS (10 μL), while animals in groups 1 and 2 received 10 μL of PBS intranasally. Sixteen hours after LPS/PBS instillation, the animals were euthanized by cervical dislocation under isoflurane sedation.
Immediately following euthanasia, BAL was collected using an intratracheal cannula. The lavage was performed with 1.5 mL of saline solution (3 × 0.5 mL). The collected lavage fluid was centrifuged at 600× g for 10 min, and the supernatant was stored at −80 °C for subsequent enzyme-linked immunosorbent assay (ELISA) analysis.
Cytokine levels (IL-10 and KC; #900-K53K and #900-K127K) were quantified in BAL samples using an ELISA kit, following the manufacturer’s instructions (PeproTech, Neuilly Sur-Seine, France). A sample volume of 25 μL was used without dilution. The enzymatic reaction was initiated with peroxidase and a specific substrate, and the reaction was stopped before measuring absorbance at 450 nm and 570 nm using a Varioskan LUX spectrometer (ThermoFisher Scientific, Waltham, MA, USA). A calibration curve was generated using standard concentrations of the target protein, with the method showing linearity across a range of 2000–0 pg/mL.

Row | Compound | ROS production induced by LPS (RAW 264.7 cells) | solubility at 4 h (Kinetic solubility assay; PBS buffer, pH 7.4, 4 h) [µM] | solubility at 24 h (Kinetic solubility assay; PBS buffer, pH 7.4, 24 h) [µM] | solubility at 4 h (Kinetic solubility assay; buffered solution pH 2.0 (commercial), pH 2.0, 4 h) [µM] | solubility at 24 h (Kinetic solubility assay; buffered solution pH 2.0 (commercial), pH 2.0, 24 h) [µM] | solubility at 4 h (Kinetic solubility assay; potassium-phosphate-buffered saline solution (KPE) buffer, pH 6.6, 4 h) [µM] | solubility at 24 h (Kinetic solubility assay; potassium-phosphate-buffered saline solution (KPE) buffer, pH 6.6, 24 h) [µM] | initial concentration retained in plasma (Rat plasma stability) [%] | potency to intercept ROS formation relative to bixin (RAW 264.7 cells; in vitro, KBx versus bixin) | IL-10 levels in BAL, KBx alone ([1]; no LPS) | KC levels in BAL, KBx alone vs control ([1]; no LPS) | IL-10 levels in BAL, LPS + KBx ([1]; then LPS 60 μg i.n., 16 h) | KC levels in BAL, LPS + KBx vs LPS ([1]; then LPS 60 μg i.n., 16 h)
1 | COC(=O)/C=C/C(C)=C\C=C\C(C)=C\C=C\C=C(C)\C=C\C=C(C)\C=C\C(=O)O [HBx, (2E,4E,6E,8E,10E,12E,14E,16Z,18E)-20-methoxy-4,8,13,17-tetramethyl-20-oxoicosa-2,4,6,8,10,12,14,16,18-nonaenoic acid] | dose-dependent reduction in ROS production | 64 (≈ 25.2 µg/mL) | 43 (≈ 17 µg/mL) | < 1 | < 1 | 30 (≈ 11.8 µg/mL) | 11 (≈ 4.34 µg/mL) | ~100 |  |  |  |  | 
2 | potassium bixinate [KBx] | dose-dependent reduction in ROS production |  |  |  |  |  |  |  | three-fold more potency | comparable to the control | no significant effect on KC levels | can increase IL-10 production in the presence of LPS | significantly lower compared to the LPS group
